Assay results reported in US9113629B2, “4-amino-6-(4-substituted-phenyl)-picolinates and 6-amino-2-(4-substituted-phenyl)-pyrimidine-4-carboxylates and their use as herbicides” (DOW AGROSCIENCES LLC, priority 2013, dated 2015).
Read-outs that look alike come from different tables or passages of the source.

How the values were obtained:
[1] = test system: Key Broadleaf Weed and Crop Species; experiment: Post-emergent Test II herbicidal activity (Table 5); type: in vivo; conditions: post-emergence, 336 h, post-emergent, 14 days after application; for pest or weed control at 70 g/ha: 70 g ai/ha; for pest or weed control at 140 g/ha: 140 g ai/ha
Outline: (§1)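 Injury was rated visually 14 d after treatment on a 0–100% scale against untreated controls. Test compounds, formulated with crop oil concentrate and surfactant and serially diluted down to 1/16× of the top rate, were applied by track sprayer at 187 L/ha onto first- to second-true-leaf seedlings.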

[2] = test system: Key Grass and Sedge Weeds as well as Grass Crops; experiment: Post-emergent Test II herbicidal activity (Table 6); type: in vivo; conditions: post-emergence, 336 h; for pest or weed control at 70 g/ha: application rate 70 g ai/ha; for pest or weed control at 140 g/ha: application rate 140 g ai/ha
Outline: as §1

[3] = ABUTH: velvetleaf (Abutilon theophrasti), read-out: Visual Growth Reduction (%) 14 Days After Application ABUTH
[4] = AMARE: redroot pigweed (Amaranthus retroflexus), read-out: Visual Growth Reduction (%) 14 Days After Application AMARE
[5] = BRSNN: oilseed-rape, canola (Brassica napus), read-out: Visual Growth Reduction (%) 14 Days After Application BRSNN
[6] = CHEAL: lambsquarters (Chenopodium album), read-out: Visual Growth Reduction (%) 14 Days After Application CHEAL
[7] = EPHHL: wild poinsettia (Euphorbia heterophylla), read-out: Visual Growth Reduction (%) 14 Days After Application EPHHL
[8] = HELAN: sunflower (Helianthus annuus), read-out: Visual Growth Reduction (%) 14 Days After Application HELAN
[9] = VIOTR: wild pansy (Viola tricolor), read-out: Visual Growth Reduction (%) 14 Days After Application VIOTR
[10] = Triticum aestivum, TRZSS (wheat), read-out: Visual Growth Reduction (%) 14 Days After Application, TRZSS
[11] = CYPES: yellow nutsedge (Cyperus esculentus), read-out: Visual Growth Reduction (%) 14 Days After Application, CYPES
[12] = DIGSA: crabgrass (Digitaria sanguinalis), read-out: Visual Growth Reduction (%) 14 Days After Application, DIGSA
[13] = ECHCG: barnyardgrass (Echinochloa crus-galli), read-out: Visual Growth Reduction (%) 14 Days After Application, ECHCG
[14] = ORYSA: rice (Oryza sativa), read-out: Visual Growth Reduction (%) 14 Days After Application, ORYSA
[15] = SETFA: giant foxtail (Setaria faberi), read-out: Visual Growth Reduction (%) 14 Days After Application, SETFA
[16] = SORVU: grain sorghum (Sorghum vulgare), read-out: Visual Growth Reduction (%) 14 Days After Application, SORVU
[17] = ZEAMX: maize, corn (Zea mays), read-out: Visual Growth Reduction (%) 14 Days After Application, ZEAMX

Nc1c(Cl)c(C(=O)O)nc(-c2ccc(Br)c(F)c2)c1Cl [Compound 43, 4-Amino-6-(4-bromo-3-fluorophenyl)-3,5-dichloropicolinic acid]
pest or weed control at 70 g/ha [1, 3]: 85 to 94% | pest or weed control at 140 g/ha [1, 3]: 85 to 94% | pest or weed control at 70 g/ha [1, 4]: 95 to 100% | pest or weed control at 140 g/ha [1, 4]: 95 to 100% | pest or weed control at 70 g/ha [1, 5]: 95 to 100% | pest or weed control at 140 g/ha [1, 5]: 95 to 100% | pest or weed control at 70 g/ha [1, 6]: 75 to 84% | pest or weed control at 140 g/ha [1, 6]: 75 to 84% | pest or weed control at 70 g/ha [1, 7]: 60 to 74% | pest or weed control at 140 g/ha [1, 7]: 60 to 74% | pest or weed control at 70 g/ha [1, 8]: 95 to 100% | pest or weed control at 140 g/ha [1, 8]: 95 to 100% | pest or weed control at 70 g/ha [1, 9]: 95 to 100% | pest or weed control at 140 g/ha [1, 9]: 95 to 100% | pest or weed control at 70 g/ha [2, 10]: 60 to 74% | pest or weed control at 140 g/ha [2, 10]: 60 to 74% | pest or weed control at 70 g/ha [2, 11]: 95 to 100% | pest or weed control at 140 g/ha [2, 11]: 95 to 100% | pest or weed control at 70 g/ha [2, 12]: 75 to 84% | pest or weed control at 140 g/ha [2, 12]: 75 to 84% | pest or weed control at 70 g/ha [2, 13]: 75 to 84% | pest or weed control at 140 g/ha [2, 13]: 60 to 74% | pest or weed control at 70 g/ha [2, 14]: 0 to 29% | pest or weed control at 140 g/ha [2, 14]: 30 to 44% | pest or weed control at 70 g/ha [2, 15]: 60 to 74% | pest or weed control at 140 g/ha [2, 15]: 60 to 74% | pest or weed control at 70 g/ha [2, 16]: 95 to 100% | pest or weed control at 140 g/ha [2, 16]: 95 to 100% | pest or weed control at 70 g/ha [2, 17]: 75 to 84% | pest or weed control at 140 g/ha [2, 17]: 75 to 84%
